Read-outs that look alike come from different tables or passages of the source.
Biological target: P2X7 (Homo sapiens (Human), UniProt Q99572)
Assay: P2X7 antagonism in human peripheral blood mononuclear cells (PBMCs), IL-1β release
Format: cell-based
Details: LPS 30 ng/ml + Bz-ATP 0.5 mM; for remaining activity at 10 µM: read-out: PBMC 10 μM (% control); for PBMC 10 μM (% control): Table 1, 10 μM compound
Procedure: P2X7 Antagonism in Human Peripheral Blood Mononuclear Cells (PBMCs) and Human Whole Blood.
Human blood was collected using a blood donor program. PBMCs were isolated from blood using a Ficoll density gradient technique. Briefly, blood was laid on Ficoll solution and centrifuged at RT for 20 minutes at 2000 rpm. The buffy layer (between red blood cells and plasma) was carefully collected by aspiration, washed with PBS and centrifuged again at 1500 rpm for 15 minutes. The resulting cell pellet was washed and plated on 96 well-plates for experiments. For the Human Whole Blood experiments, 150 μl of human blood was platted on 96 well-plates. Lipopolysaccharide (LPS) (30 ng/ml) was added to each well and incubated for 1 hour. Test compounds were then added and incubated for 30 minutes. The P2X7 agonist, 2′(3′)-O-(4-benzoylbenzoyl) adenosine 5′-triphosphate (Bz-ATP) was then added at a final concentration of 0.5 mM (PBMC) or 1 mM (blood). Cells were incubated for an additional 1.5 hours. At that point, supernatant was collected and stored for IL-1β assay using manufacturer's protocol for enzyme-linked immunosorbent assay (ELISA). Data was expressed as percent control, where control is defined as the difference in IL-1β release in LPS+Bz-ATP samples and LPS only samples. Data was plotted as response (% control) versus concentration to generate IC50 values. […] Data are analyzed and graphed on Graphpad Prism 5. For analysis, each concentration point is averaged from triplicate values and the averaged values are plotted on Graphpad Prism.

[1] = P2X7, Table 2 (additional runs), 10 μM compound

P2X7, sequence (Q99572 whole entry): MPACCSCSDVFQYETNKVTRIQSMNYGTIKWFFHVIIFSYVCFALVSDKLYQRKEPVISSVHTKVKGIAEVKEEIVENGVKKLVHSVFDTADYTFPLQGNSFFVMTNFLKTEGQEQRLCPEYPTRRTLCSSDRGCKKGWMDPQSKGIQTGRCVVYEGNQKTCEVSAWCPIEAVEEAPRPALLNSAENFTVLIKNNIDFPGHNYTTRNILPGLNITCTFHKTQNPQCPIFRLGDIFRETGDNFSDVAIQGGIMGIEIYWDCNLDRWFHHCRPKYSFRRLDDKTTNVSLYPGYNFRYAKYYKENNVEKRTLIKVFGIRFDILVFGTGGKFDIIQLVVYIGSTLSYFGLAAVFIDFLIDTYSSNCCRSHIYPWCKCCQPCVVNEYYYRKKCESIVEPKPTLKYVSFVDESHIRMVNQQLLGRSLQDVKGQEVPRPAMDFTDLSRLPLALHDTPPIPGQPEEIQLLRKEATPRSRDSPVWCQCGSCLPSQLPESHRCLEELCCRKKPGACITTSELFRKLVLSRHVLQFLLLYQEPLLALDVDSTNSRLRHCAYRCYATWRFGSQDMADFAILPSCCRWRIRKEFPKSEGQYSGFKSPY

Compound | remaining activity at 10 µM [1] | PBMC 10 μM (% control) | remaining activity at 10 µM (P2X7, Table 1, 10 μM compound)
O=C(c1ccnc(C(F)(F)F)c1Cl)N1[C@H]2CCC[C@@H]1c1nnc(-c3cccs3)n1C2 (stereo in doubt) [Example 35, (6S*,10R*)-11-{[3-Chloro-2-(trifluoromethyl)pyridin-4-yl]carbonyl}-3-thiophen-2-yl-5,6,7,8,9,10-hexahydro-6,10-epimino[1,2,4]triazolo[4,3-a]azocine] | 82.2% | 82.2 % control | –
O=C(c1cccc(C(F)(F)F)c1Cl)N1[C@H]2CCC[C@@H]1c1nnc(-c3cscn3)n1C2 (stereo in doubt) [Example 8, (6S*,10R*)-11-{[2-Chloro-3-(trifluoromethyl)phenyl]carbonyl}-3-(1,3-thiazol-4-yl)-5,6,7,8,9,10-hexahydro-6,10-epimino[1,2,4]triazolo[4,3-a]azocine] | 7.3% | – | 7.3%
COc1ccnc(-c2nnc3n2C[C@H]2CCC[C@@H]3N2C(=O)c2cccc(C(F)(F)F)c2Cl)c1 (stereo in doubt) [Example 27, (6R*,10S*)-11-{[2-Chloro-3-(trifluoromethyl)phenyl]carbonyl}-3-(4-methoxypyridin-2-yl)-5,6,7,8,9,10-hexahydro-6,10-epimino[1,2,4]triazolo[4,3-a]azocine] | 4.8% | – | 4.8%
Cc1nc(-c2nnc3n2C[C@H]2CCC[C@@H]3N2C(=O)c2cccc(C(F)(F)F)c2Cl)ccc1F (stereo in doubt) [Example 193, (6R,10S)-11-{[2-Chloro-3-(trifluoromethyl)phenyl]carbonyl}-3-(5-fluoro-6-methylpyridin-2-yl)-5,6,7,8,9,10-hexahydro-6,10-epimino[1,2,4]triazolo[4,3-a]azocine] | -13.8% | – | –
O=C(c1ccc(F)c(C(F)(F)F)c1Cl)N1[C@@H]2CCC[C@H]1c1nnc(-c3ccccn3)n1C2 (stereo in doubt) [Example 200, (6R,10S)-11-{[2-Chloro-4-fluoro-3-(trifluoromethyl)phenyl]carbonyl}-3-pyridin-2-yl-5,6,7,8,9,10-hexahydro-6,10-epimino[1,2,4]triazolo[4,3-a]azocine] | 7.7% | – | –
O=C(c1cccc(C(F)(F)F)c1Cl)N1[C@@H]2CCC[C@H]1c1nnc(-c3ccncn3)n1C2 (stereo in doubt) [Example 197, (6R,10S)-11-{[2-Chloro-3-(trifluoromethyl)phenyl]carbonyl}-3-pyrimidin-4-yl-5,6,7,8,9,10-hexahydro-6,10-epimino[1,2,4]triazolo[4,3-a]azocine] | 1.8% | – | –
O=C(c1ccnc(C(F)(F)F)c1Cl)N1[C@@H]2CCC[C@H]1c1nnc(-c3ccccn3)n1C2 (stereo in doubt) [Example 199, (6R,10S)-11-{[3-Chloro-2-(trifluoromethyl)pyridin-4-yl]carbonyl}-3-pyridin-2-yl-5,6,7,8,9,10-hexahydro-6,10-epimino[1,2,4]triazolo[4,3-a]azocine] | -3.2% | – | –
O=C(c1ccc(F)c(Cl)c1Cl)N1[C@@H]2CCC[C@H]1c1nnc(-c3ccccn3)n1C2 (stereo in doubt) [Example 203, (6R,10S)-11-[(2,3-Dichloro-4-fluorophenyl)carbonyl]-3-pyridin-2-yl-5,6,7,8,9,10-hexahydro-6,10-epimino[1,2,4]triazolo[4,3-a]azocine] | -5% | – | –
Cc1cccc(-c2nnc3n2C[C@H]2CCC[C@@H]3N2C(=O)c2cccc(C(F)(F)F)c2Cl)n1 (stereo in doubt) [Example 24, (6R*,10S*)-11-{[2-Chloro-3-(trifluoromethyl)phenyl]carbonyl}-3-(6-methylpyridin-2-yl)-5,6,7,8,9,10-hexahydro-6,10-epimino[1,2,4]triazolo[4,3-a]azocine] | 32.7% | – | 32.7%
O=C(c1cccc(C(F)(F)F)c1Cl)N1[C@@H]2CCC[C@H]1c1nnc(-c3cc(C(F)(F)F)ccn3)n1C2 (stereo in doubt) [Example 196, (6R,10S)-11-{[2-Chloro-3-(trifluoromethyl)phenyl]carbonyl}-3-[4-(trifluoromethyl)pyridin-2-yl]-5,6,7,8,9,10-hexahydro-6,10-epimino[1,2,4]triazolo[4,3-a]azocine] | -0.2% | – | –
O=C(c1cccc(C(F)(F)F)c1Cl)N1[C@@H]2CCC[C@H]1c1nnc(-c3cscn3)n1C2 (stereo in doubt) [Example 9, (6R*,10S*)-11-{[2-Chloro-3-(trifluoromethyl)phenyl]carbonyl}-3-(1,3-thiazol-4-yl)-5,6,7,8,9,10-hexahydro-6,10-epimino[1,2,4]triazolo[4,3-a]azocine] | 7.3% | – | 7.3%
O=C(c1ccc(Cl)cc1Cl)N1[C@@H]2CCC[C@H]1c1nnc(-c3ncc(F)cn3)n1C2 (stereo in doubt) [Example 21, (6R*,10S*)-11-[(2,4-Dichlorophenyl)carbonyl]-3-(5-fluoropyrimidin-2-yl)-5,6,7,8,9,10-hexahydro-6,10-epimino[1,2,4]triazolo[4,3-a]azocine] | -2.1% | – | -2.1%
O=C(c1cccc(C(F)(F)F)c1Cl)N1[C@H]2CCC[C@@H]1c1nnc(-c3ncccn3)n1C2 (stereo in doubt) [Example 2, (6S*,10R*)-11-{[2-Chloro-3-(trifluoromethyl)phenyl]carbonyl}-3-pyrimidin-2-yl-5,6,7,8,9,10-hexahydro-6,10-epimino[1,2,4]triazolo[4,3-a]azocine] | 45.7% | – | 45.7%
Cc1ccnc(-c2nnc3n2C[C@H]2CCC[C@@H]3N2C(=O)c2cccc(C(F)(F)F)c2Cl)c1 (stereo in doubt) [Example 194, (6R,10S)-11-{[2-Chloro-3-(trifluoromethyl)phenyl]carbonyl}-3-(4-methylpyridin-2-yl)-5,6,7,8,9,10-hexahydro-6,10-epimino[1,2,4]triazolo[4,3-a]azocine] | -13% | – | –
Cc1ccc(-c2nnc3n2C[C@H]2CCC[C@@H]3N2C(=O)c2ccnc(C(F)(F)F)c2Cl)s1 (stereo in doubt) [Example 39, (6R*,10S*)-11-{[3-Chloro-2-(trifluoromethyl)pyridin-4-yl]carbonyl}-3-(5-methylthiophen-2-yl)-5,6,7,8,9,10-hexahydro-6,10-epimino[1,2,4]triazolo[4,3-a]azocine] | 5.8% | – | 5.8%
O=C(c1ccnc(C(F)(F)F)c1Cl)N1[C@@H]2CCC[C@H]1c1nnc(-c3cccs3)n1C2 (stereo in doubt) [Example 36, (6R*,10S*)-11-{[3-Chloro-2-(trifluoromethyl)pyridin-4-yl]carbonyl}-3-thiophen-2-yl-5,6,7,8,9,10-hexahydro-6,10-epimino[1,2,4]triazolo[4,3-a]azocine] | -1.2% | – | -1.2%
O=C(c1cccc(C(F)(F)F)c1Cl)N1[C@H]2CCC[C@@H]1c1nnc(-c3cccnc3)n1C2 (stereo in doubt) [Example 14, (6S*,10R*)-11-{[2-Chloro-3-(trifluoromethyl)phenyl]carbonyl}-3-pyridin-3-yl-5,6,7,8,9,10-hexahydro-6,10-epimino[1,2,4]triazolo[4,3-a]azocine] | 2.4% | – | 2.4%
O=C(c1cccc(C(F)(F)F)c1Cl)N1[C@H]2CCC[C@@H]1c1nnc(-c3ccc(F)cn3)n1C2 (stereo in doubt) [Example 11, (6S*,10R*)-11-{[2-Chloro-3-(trifluoromethyl)phenyl]carbonyl}-3-(5-fluoropyridin-2-yl)-5,6,7,8,9,10-hexahydro-6,10-epimino[1,2,4]triazolo[4,3-a]azocine] | 38.9% | – | 38.9%
O=C(c1cccc(C(F)(F)F)c1Cl)N1[C@H]2CC[C@@H]1c1nnc(-c3ccccn3)n1C2 [Example 41, (6S,9R)-10-{[2-Chloro-3-(trifluoromethyl)phenyl]carbonyl}-3-pyridin-2-yl-6,7,8,9-tetrahydro-5H-6,9-epimino[1,2,4]triazolo[4,3-a]azepine] | -20% | −20.0 % control | –
O=C(c1cccc(C(F)(F)F)c1Cl)N1[C@@H]2CCC[C@H]1c1nnc(-c3ncccn3)n1C2 (stereo in doubt) [Example 3, (6R*,10S*)-11-{[2-Chloro-3-(trifluoromethyl)phenyl]carbonyl}-3-pyrimidin-2-yl-5,6,7,8,9,10-hexahydro-6,10-epimino[1,2,4]triazolo[4,3-a]azocine] | 8.9% | – | 8.9%
O=C(c1ccc(Cl)c(F)c1Cl)N1[C@@H]2CCC[C@H]1c1nnc(-c3ccccn3)n1C2 (stereo in doubt) [Example 202, (6R,10S)-11-[(2,4-Dichloro-3-fluorophenyl)carbonyl]-3-pyridin-2-yl-5,6,7,8,9,10-hexahydro-6,10-epimino[1,2,4]triazolo[4,3-a]azocine] | -2.3% | – | –

From patent US10053462B2, “P2X7 modulators” (Jansssen Pharmaceutica NV, priority 2013, dated 2018)
